According to patent EP0091090A2, “Bipyridine substituted imidazolidene copper complex and its use in food-producing animals, and bipyridine, 2,2'-(2-imidazolidinylidene) di-copper complex and use in animals” (INTERNATIONAL MINERALS & CHEMICAL CORPORATION, priority 1982, dated 1983):

Test system: rumen fluid batch culture
Assay: Rumen fluid batch culture test: volatile fatty acid, gas (CH4 + H2), protein and amino acid accumulation (Example 2)
Assay type: cell-based, steers
Design: HFo (formate) / HAc (acetate) / HPr (propionate) / HiBu (isobutyrate) / HBu (butyrate) / HiVal (isovalerate) / Total / Caloric Value of H2 / Caloric Value of HFo / Caloric Value of HAc / Caloric Value of HPr / Caloric Value of HiBu / Caloric Value of HBu / Caloric Value of HiVal / Caloric Value of CH3: unit not given here
Description: The above Formula IV composition was tested to determine its effectiveness as a feed additive for ruminants. The initial tests were in rumen fluid batch culture systems to determine the effect of the compound on volatile fatty acid/methane ratios (VFA/CH4). […] Test Procedure: A 50/50 mixture of ground corn and ground alfalfa was used as the substrate for the subject rumen fluid batch culture test. The compound (Formula IV ) was present in the rumen fluid in three separate test samples at 8.33, 25 and 75 ppm, respectively. On day 1, rumen fluid was obtained from mature fistulated steers on 50/50 concentrate/roughage diets. The rumen fluid (RF) was strained through three layers of gauze cloth and equilibrated with C02 gas. Wheaton serum vials (125 ml) were prepared ahead with 20 ml continuous batch buffer and 100 mg 50/50 ground corn/ground alfalfa. Controls and compounds (dissolved in acetone) were set up according to desired levels. The vials were kept under C02 gas until 20 ml of the strained RF was added. The vials were sealed and incubated at 39°C for 24 hours in a hot water bath. On successive days, gas samples (0.1 ml) were drawn for gas chromatography analysis before transferring 20 ml of the batch culture to another vial containing 20 ml of buffer, 100 mg substrate, and the corresponding compound. The remaining 20 ml was inoculated with 2 ml 6N HC1 and centrifuged at 15,000 rpm for 15 minutes. Ether extracts were prepared for volatile fatty acid (VFA) analysis. Some minor adjustments were made in the termperatures on the Hewlett-Packard 5750 Gas-Liquid Chromatograph used for VFA analysis when the glass column used was changed from 1/4 inch diameter to 1/8 inch diameter. Injection Port = 220°C Column Oven = 170°C Flame Detector = 250°C Only 4 minutes was needed to record the sample instead of the previous 7 minutes.

[1] = 8.33 μg/ml, total produced on Day 10

2,2'-(4,5-diphenyl-2H-imidazol-2-ylidene)bispyridine with CuCl2(1/1) [Formula IV Compound]
AA (8.33 µg/ml, day 2): 0.16 µmol/mL
CH4 (8.33 µg/ml, day 2): 204 µ Moles
H2 (8.33 µg/ml, day 2): 0 µ Moles
HAc (acetate) (8.33 µg/ml, day 2): 43.83
HBu (butyrate) (8.33 µg/ml, day 2): 12.33
HFo (formate) (8.33 µg/ml, day 2): 1.48
HPr (propionate) (8.33 µg/ml, day 2): 11.81
HiBu (isobutyrate) (8.33 µg/ml, day 2): 1.27
HiVal (isovalerate) (8.33 µg/ml, day 2): 0
Protein (8.33 µg/ml, day 2): 0 mg/mL
Total (8.33 µg/ml, day 2): 70.71
AA (8.33 µg/ml, day 3): 0.13 µmol/mL
CH4 (8.33 µg/ml, day 3): 157 µ Moles
H2 (8.33 µg/ml, day 3): 0 µ Moles
HAc (acetate) (8.33 µg/ml, day 3): 33.35
HBu (butyrate) (8.33 µg/ml, day 3): 9.87
HFo (formate) (8.33 µg/ml, day 3): 0.92
HPr (propionate) (8.33 µg/ml, day 3): 12.17
HiBu (isobutyrate) (8.33 µg/ml, day 3): 1.14
HiVal (isovalerate) (8.33 µg/ml, day 3): 1.14
Protein (8.33 µg/ml, day 3): 0 mg/mL
Total (8.33 µg/ml, day 3): 58.58
CH4 (8.33 µg/ml, day 4): 164 µ Moles
H2 (8.33 µg/ml, day 4): 0 µ Moles
HAc (acetate) (8.33 µg/ml, day 4): 34.54
HBu (butyrate) (8.33 µg/ml, day 4): 7.77
HFo (formate) (8.33 µg/ml, day 4): 0.40
HPr (propionate) (8.33 µg/ml, day 4): 13.16
HiBu (isobutyrate) (8.33 µg/ml, day 4): 0.68
HiVal (isovalerate) (8.33 µg/ml, day 4): 2.01
Total (8.33 µg/ml, day 4): 58.54
CH4 (8.33 µg/ml, day 5): 181 µ Moles
H2 (8.33 µg/ml, day 5): 0 µ Moles
HAc (acetate) (8.33 µg/ml, day 5): 33.15
HBu (butyrate) (8.33 µg/ml, day 5): 7.14
HFo (formate) (8.33 µg/ml, day 5): 0.30
HPr (propionate) (8.33 µg/ml, day 5): 12.66
HiBu (isobutyrate) (8.33 µg/ml, day 5): 0.35
HiVal (isovalerate) (8.33 µg/ml, day 5): 1.17
Total (8.33 µg/ml, day 5): 54.76
AA (8.33 µg/ml, day 6): 0.11 µmol/mL
CH4 (8.33 µg/ml, day 6): 176 µ Moles
H2 (8.33 µg/ml, day 6): 0 µ Moles
HAc (acetate) (8.33 µg/ml, day 6): 29.32
HBu (butyrate) (8.33 µg/ml, day 6): 5.69
HFo (formate) (8.33 µg/ml, day 6): 1.02
HPr (propionate) (8.33 µg/ml, day 6): 11.08
HiBu (isobutyrate) (8.33 µg/ml, day 6): 0.46
HiVal (isovalerate) (8.33 µg/ml, day 6): 0
Protein (8.33 µg/ml, day 6): 0 mg/mL
Total (8.33 µg/ml, day 6): 47.57
AA (8.33 µg/ml, day 7): 0.11 µmol/mL
CH4 (8.33 µg/ml, day 7): 139 µ Moles
H2 (8.33 µg/ml, day 7): 0 µ Moles
HAc (acetate) (8.33 µg/ml, day 7): 29.53
HBu (butyrate) (8.33 µg/ml, day 7): 4.39
HFo (formate) (8.33 µg/ml, day 7): 0.73
HPr (propionate) (8.33 µg/ml, day 7): 13.12
HiBu (isobutyrate) (8.33 µg/ml, day 7): 0.76
HiVal (isovalerate) (8.33 µg/ml, day 7): 0.77
Protein (8.33 µg/ml, day 7): 0 mg/mL
Total (8.33 µg/ml, day 7): 49.29
AA (8.33 µg/ml, day 8): 0.09 µmol/mL
CH4 (8.33 µg/ml, day 8): 158 µ Moles
H2 (8.33 µg/ml, day 8): 0 µ Moles
HAc (acetate) (8.33 µg/ml, day 8): 26.19
HBu (butyrate) (8.33 µg/ml, day 8): 5.49
HFo (formate) (8.33 µg/ml, day 8): 0.55
HPr (propionate) (8.33 µg/ml, day 8): 13.48
HiBu (isobutyrate) (8.33 µg/ml, day 8): 0.65
HiVal (isovalerate) (8.33 µg/ml, day 8): 2.20
Protein (8.33 µg/ml, day 8): 0 mg/mL
Total (8.33 µg/ml, day 8): 48.55
AA (8.33 µg/ml, day 9): 0.10 µmol/mL
CH4 (8.33 µg/ml, day 9): 157 µ Moles
H2 (8.33 µg/ml, day 9): 0 µ Moles
HAc (acetate) (8.33 µg/ml, day 9): 27.31
HBu (butyrate) (8.33 µg/ml, day 9): 3.06
HFo (formate) (8.33 µg/ml, day 9): 0.50
HPr (propionate) (8.33 µg/ml, day 9): 13.73
HiBu (isobutyrate) (8.33 µg/ml, day 9): 0.58
HiVal (isovalerate) (8.33 µg/ml, day 9): 0.55
Protein (8.33 µg/ml, day 9): 0 mg/mL
Total (8.33 µg/ml, day 9): 45.71
AA (8.33 µg/ml, day 10): 0.24 µmol/mL
CH4 (8.33 µg/ml, day 10): 159 µ Moles
H2 (8.33 µg/ml, day 10): 0 µ Moles
HAc (acetate) (8.33 µg/ml, day 10): 24.52
HBu (butyrate) (8.33 µg/ml, day 10): 2.56
HFo (formate) (8.33 µg/ml, day 10): 0.23
HPr (propionate) (8.33 µg/ml, day 10): 12.89
HiBu (isobutyrate) (8.33 µg/ml, day 10): 0.21
HiVal (isovalerate) (8.33 µg/ml, day 10): 0.05
Protein (8.33 µg/ml, day 10): 0 mg/mL
Total (8.33 µg/ml, day 10): 40.45
Caloric Value of CH3 (8.33 µg/ml, produced on Day 10): 33.54
Caloric Value of H2 (8.33 µg/ml, produced on Day 10): 0
Caloric Value of HAc (8.33 µg/ml, produced on Day 10): 90.96
Caloric Value of HBu (8.33 µg/ml, produced on Day 10): 21.42
Caloric Value of HFo (8.33 µg/ml, produced on Day 10): 0
Caloric Value of HPr (8.33 µg/ml, produced on Day 10): 87.89
Caloric Value of HiBu (8.33 µg/ml, produced on Day 10): 0
Caloric Value of HiVal (8.33 µg/ml, produced on Day 10): 0
Caloric Value, Total (VFA's) (8.33 µg/ml, produced on Day 10): 200.27
Total Cal in VFA & Gas (8.33 µg/ml, produced on Day 10): 233.79 cal
CH4 produced on Day 10 [1]: 159
H2 produced on Day 10 [1]: 0
HAc (acetate) produced on Day 10 [1]: 434.4
HBu (butyrate) produced on Day 10 [1]: 41.2
HFo (formate) produced on Day 10 [1]: 0
HPr (propionate) produced on Day 10 [1]: 240.8
HiBu (isobutyrate) produced on Day 10 [1]: 0
HiVal (isovalerate) produced on Day 10 [1]: 0
Total VFA's produced on Day 10 [1]: 716.4
methane production (25 µg/ml, by day 10): seemed to be recovering
AA (25 µg/ml, day 2): 0.16 µ Moles/ml
CH4 (25 µg/ml, day 2): 197 µ Moles
H2 (25 µg/ml, day 2): 0 µ Moles
HAc (acetate) (25 µg/ml, day 2): 46.39
HBu (butyrate) (25 µg/ml, day 2): 10.94
HFo (formate) (25 µg/ml, day 2): 1.24
HPr (propionate) (25 µg/ml, day 2): 12.69
HiBu (isobutyrate) (25 µg/ml, day 2): 1.66
HiVal (isovalerate) (25 µg/ml, day 2): 2.55
Protein (25 µg/ml, day 2): 0 mg/mL
Total (25 µg/ml, day 2): 75.45
AA (25 µg/ml, day 3): 0.17 µ Moles/ml
CH4 (25 µg/ml, day 3): 166 µ Moles
H2 (25 µg/ml, day 3): 0 µ Moles
HAc (acetate) (25 µg/ml, day 3): 35.36
HBu (butyrate) (25 µg/ml, day 3): 7.27
HFo (formate) (25 µg/ml, day 3): 1.05
HPr (propionate) (25 µg/ml, day 3): 12.93
HiBu (isobutyrate) (25 µg/ml, day 3): 1.21
HiVal (isovalerate) (25 µg/ml, day 3): 0.59
Protein (25 µg/ml, day 3): 0 mg/mL
Total (25 µg/ml, day 3): 58.40
CH4 (25 µg/ml, day 4): 164 µ Moles
H2 (25 µg/ml, day 4): 0 µ Moles
HAc (acetate) (25 µg/ml, day 4): 36.52
HBu (butyrate) (25 µg/ml, day 4): 6.38
HFo (formate) (25 µg/ml, day 4): 0.71
HPr (propionate) (25 µg/ml, day 4): 14.32
HiBu (isobutyrate) (25 µg/ml, day 4): 0.86
HiVal (isovalerate) (25 µg/ml, day 4): 1.33
Total (25 µg/ml, day 4): 60.11
CH4 (25 µg/ml, day 5): 170 µ Moles
H2 (25 µg/ml, day 5): 0 µ Moles
HAc (acetate) (25 µg/ml, day 5): 34.06
HBu (butyrate) (25 µg/ml, day 5): 6.63
HFo (formate) (25 µg/ml, day 5): 0.44
HPr (propionate) (25 µg/ml, day 5): 14.87
HiBu (isobutyrate) (25 µg/ml, day 5): 0.56
HiVal (isovalerate) (25 µg/ml, day 5): 0.78
Total (25 µg/ml, day 5): 57.33
AA (25 µg/ml, day 6): 0.11 µ Moles/ml
CH4 (25 µg/ml, day 6): 143 µ Moles
H2 (25 µg/ml, day 6): 0 µ Moles
HAc (acetate) (25 µg/ml, day 6): 28.98
HBu (butyrate) (25 µg/ml, day 6): 4.26
HFo (formate) (25 µg/ml, day 6): 0.68
HPr (propionate) (25 µg/ml, day 6): 13.87
HiBu (isobutyrate) (25 µg/ml, day 6): 0.53
HiVal (isovalerate) (25 µg/ml, day 6): 0.20
Protein (25 µg/ml, day 6): 0.01 mg/mL
Total (25 µg/ml, day 6): 48.49
AA (25 µg/ml, day 7): 0.24 µ Moles/ml
CH4 (25 µg/ml, day 7): 58 µ Moles
H2 (25 µg/ml, day 7): 8 µ Moles
HAc (acetate) (25 µg/ml, day 7): 22.54
HBu (butyrate) (25 µg/ml, day 7): 5.02
HFo (formate) (25 µg/ml, day 7): 0.61
HPr (propionate) (25 µg/ml, day 7): 13.54
HiBu (isobutyrate) (25 µg/ml, day 7): 0.75
HiVal (isovalerate) (25 µg/ml, day 7): 0.51
Protein (25 µg/ml, day 7): 0 mg/mL
Total (25 µg/ml, day 7): 42.95
AA (25 µg/ml, day 8): 0.22 µ Moles/ml
